Measurements: US20230398130A1, “METHODS AND COMPOSITIONS FOR DIFFERENTIATING STEM CELLS” (Massachusetts Institute of Technology, priority 2020, published 2023)

Legend:
ISC-enriched organoids [1] = assay: Primary screen, 384-well 2.5-D organoid differentiation (ENR+CD, 6 days): carbachol-induced lysozyme secretion (LYZ.S); assay type: cell-based, murine; details: for Dose.FC.LYZ.S: FC vs plate median; for Dose.FC.LYZ.S (log 2 fold change) / Dose.FC.LYZ.S (log 2 fold change, carbachol-induced lysozyme secretion): vs plate median
Excerpt: (§1) High-throughput screening.

ISC-enriched organoids [2] = assay: Primary screen, 384-well 2.5-D organoid differentiation (ENR+CD, 6 days, Target Selective Inhibitor Library, vs whole-plate median): ATP (CellTiter-Glo 3D, CTG); details: for Dose.FC.CTG: FC vs plate median; for Z.CTG: standard z score of FC; for Dose.FC.CTG (log 2 fold change) / Dose.FC.CTG (log 2 fold change, ATP): vs plate median
ISC-enriched organoids [3] = assay: Primary screen, 384-well 2.5-D organoid differentiation (ENR+CD, 6 days): basal lysozyme secretion (LYZ.NS); assay type: cell-based, murine; details: for Dose.FC.LYZ.NS: FC vs plate median; for Z.LYZ.NS: standard z score of FC; for Dose.FC.LYZ.NS (log 2 fold change) / Dose.FC.LYZ.NS (log 2 fold change, basal lysozyme secretion): vs plate median
Excerpt: as §1

[4] = primary screen, dose 0.08 uM, ENR+CD 6 days
[5] = primary screen, dose 0.40 uM, ENR+CD 6 days
[6] = primary screen, dose 2.00 uM, ENR+CD 6 days
[7] = primary screen, dose 10.00 uM, ENR+CD 6 days

`O=C(/C=C/c1cccc(S(=O)(=O)Nc2ccccc2)c1)NO` [Belinostat (PXD101)] was tested, and the Dose.FC.LYZ.S (ISC-enriched organoids [1]; [4]) was −0.059 log 2 fold change, the Dose.FC.LYZ.S (ISC-enriched organoids [1]; [5]) was 0.042 log 2 fold change and the Dose.FC.LYZ.S (ISC-enriched organoids [1]; [6]) was −0.264 log 2 fold change. For the same compound, the Dose.FC.LYZ.S (ISC-enriched organoids [1]; [7]) was −0.327 log 2 fold change, the Dose.FC.CTG (ISC-enriched organoids [2]; [4]) was −0.227 log 2 fold change and the Z.CTG (ISC-enriched organoids [2]; primary screen, dose 0.08 uM) was −0.543. For the same compound, the Dose.FC.CTG (ISC-enriched organoids [2]; [5]) was −0.055 log 2 fold change, the Z.CTG (ISC-enriched organoids [2]; primary screen, dose 0.40 uM) was −0.133 and the Dose.FC.CTG (ISC-enriched organoids [2]; [6]) was −0.782 log 2 fold change. The Z.CTG (ISC-enriched organoids [2]; primary screen, dose 2.00 uM) was −1.868, the Dose.FC.CTG (ISC-enriched organoids [2]; [7]) was −1.122 log 2 fold change and the Z.CTG (ISC-enriched organoids [2]; primary screen, dose 10.00 uM) was −2.679. For the same compound, the Dose.FC.LYZ.NS (ISC-enriched organoids [3]; [4]) was 0.008 log 2 fold change, the Z.LYZ.NS (ISC-enriched organoids [3]; primary screen, dose 0.08 uM) was 0.067 and the Dose.FC.LYZ.NS (ISC-enriched organoids [3]; [5]) was 0.129 log 2 fold change. The Z.LYZ.NS (ISC-enriched organoids [3]; primary screen, dose 0.40 uM) was 1.125, the Dose.FC.LYZ.NS (ISC-enriched organoids [3]; [6]) was −0.173 log 2 fold change and the Z.LYZ.NS (ISC-enriched organoids [3]; primary screen, dose 2.00 uM) was −1.510. It also gave a Dose.FC.LYZ.NS (ISC-enriched organoids [3]; [7]) of −0.196 log 2 fold change and a Z.LYZ.NS (ISC-enriched organoids [3]; primary screen, dose 10.00 uM) of −1.709.

In the case of `Cc1ccc(S(=O)(=O)NC(=O)NN2CC3CCCC3C2)cc1` (stereo not shown) [Gliclazide], the Dose.FC.LYZ.S (ISC-enriched organoids [1]; Dose 10.00 uM, ENR+CD, 6 days) is reported as −0.060 log 2 fold change, the Z.CTG (ISC-enriched organoids [2]; Dose 0.08 uM) is reported as 0.386 and the Z.CTG (ISC-enriched organoids [2]; Dose 0.40 uM) is reported as 0.128. The Z.CTG (ISC-enriched organoids [2]; Dose 2.00 uM) was 0.020, the Dose.FC.CTG (ISC-enriched organoids [2]; Dose 10.00 uM, ENR+CD, 6 days) was −0.092 log 2 fold change and the Z.CTG (ISC-enriched organoids [2]; Dose 10.00 uM) was −0.219. The Dose.FC.LYZ.NS (ISC-enriched organoids [3]; Dose 10.00 uM, ENR+CD, 6 days) was −0.035 log 2 fold change.

For `Cc1ccc(-n2nccn2)c(C(=O)N2CCN(c3nc4cc(Cl)ccc4o3)CC[C@H]2C)c1` [Suvorexant (MK-4305)], the “Dose.FC.LYZ.S (log 2 fold change)” value (ISC-enriched organoids [1]; Dose 0.08 uM, primary screen) was 0.186, the “Dose.FC.LYZ.S (log 2 fold change)” value (ISC-enriched organoids [1]; Dose 0.40 uM, primary screen) was 0.142 and the “Dose.FC.LYZ.S (log 2 fold change)” value (ISC-enriched organoids [1]; Dose 2.00 uM, primary screen) was 0.101. The “Dose.FC.LYZ.S (log 2 fold change)” value (ISC-enriched organoids [1]; Dose 10.00 uM, primary screen) was 0.131, the “Z.CTG (standard z score)” value (ISC-enriched organoids [2]; Dose 0.08 uM, primary screen) was 0.458 and the “Dose.FC.CTG (log 2 fold change)” value (ISC-enriched organoids [2]; Dose 0.08 uM, primary screen) was 0.192. The “Z.CTG (standard z score)” value (ISC-enriched organoids [2]; Dose 0.40 uM, primary screen) was 0.609, the “Dose.FC.CTG (log 2 fold change)” value (ISC-enriched organoids [2]; Dose 0.40 uM, primary screen) was 0.255 and the “Z.CTG (standard z score)” value (ISC-enriched organoids [2]; Dose 2.00 uM, primary screen) was 0.895. For the same compound, the “Dose.FC.CTG (log 2 fold change)” value (ISC-enriched organoids [2]; Dose 2.00 uM, primary screen) was 0.375, the “Z.CTG (standard z score)” value (ISC-enriched organoids [2]; Dose 10.00 uM, primary screen) was 0.597 and the “Dose.FC.CTG (log 2 fold change)” value (ISC-enriched organoids [2]; Dose 10.00 uM, primary screen) was 0.250. For the same compound, the “Z.LYZ.NS (standard z score)” value (ISC-enriched organoids [3]; Dose 0.08 uM, primary screen) was 1.775, the “Dose.FC.LYZ.NS (log 2 fold change)” value (ISC-enriched organoids [3]; Dose 0.08 uM, primary screen) was 0.204 and the “Z.LYZ.NS (standard z score)” value (ISC-enriched organoids [3]; Dose 0.40 uM, primary screen) was 1.073. The “Dose.FC.LYZ.NS (log 2 fold change)” value (ISC-enriched organoids [3]; Dose 0.40 uM, primary screen) was 0.123, the “Z.LYZ.NS (standard z score)” value (ISC-enriched organoids [3]; Dose 2.00 uM, primary screen) was 1.073 and the “Dose.FC.LYZ.NS (log 2 fold change)” value (ISC-enriched organoids [3]; Dose 2.00 uM, primary screen) was 0.123. For the same compound, the “Z.LYZ.NS (standard z score)” value (ISC-enriched organoids [3]; Dose 10.00 uM, primary screen) was 0.670 and the “Dose.FC.LYZ.NS (log 2 fold change)” value (ISC-enriched organoids [3]; Dose 10.00 uM, primary screen) was 0.077.

With `C[C@H](Cn1cnc2c(N)ncnc21)OCP(=O)(O)O` [Tenofovir] the “Dose.FC.LYZ.S (log 2 fold change, carbachol-induced lysozyme secretion)” value (ISC-enriched organoids [1]; dose 0.08 uM) was 0.045, the “Dose.FC.LYZ.S (log 2 fold change, carbachol-induced lysozyme secretion)” value (ISC-enriched organoids [1]; dose 0.40 uM) was −0.080 and the “Dose.FC.LYZ.S (log 2 fold change, carbachol-induced lysozyme secretion)” value (ISC-enriched organoids [1]; dose 2.00 uM) was −0.171. The “Dose.FC.LYZ.S (log 2 fold change, carbachol-induced lysozyme secretion)” value (ISC-enriched organoids [1]; dose 10.00 uM) was −0.271, the “Z.CTG (standard z score)” value (ISC-enriched organoids [2]; dose 0.08 uM) was 0.045 and the “Dose.FC.CTG (log 2 fold change, ATP)” value (ISC-enriched organoids [2]; dose 0.08 uM) was 0.019. The “Z.CTG (standard z score)” value (ISC-enriched organoids [2]; dose 0.40 uM) was −0.200, the “Dose.FC.CTG (log 2 fold change, ATP)” value (ISC-enriched organoids [2]; dose 0.40 uM) was −0.084 and the “Z.CTG (standard z score)” value (ISC-enriched organoids [2]; dose 2.00 uM) was −0.308. The “Dose.FC.CTG (log 2 fold change, ATP)” value (ISC-enriched organoids [2]; dose 2.00 uM) was −0.129, the “Z.CTG (standard z score)” value (ISC-enriched organoids [2]; dose 10.00 uM) was −0.804 and the “Dose.FC.CTG (log 2 fold change, ATP)” value (ISC-enriched organoids [2]; dose 10.00 uM) was −0.337. The “Z.LYZ.NS (standard z score)” value (ISC-enriched organoids [3]; dose 0.08 uM) was 0.673, the “Dose.FC.LYZ.NS (log 2 fold change, basal lysozyme secretion)” value (ISC-enriched organoids [3]; dose 0.08 uM) was 0.077 and the “Z.LYZ.NS (standard z score)” value (ISC-enriched organoids [3]; dose 0.40 uM) was −0.662. For the same compound, the “Dose.FC.LYZ.NS (log 2 fold change, basal lysozyme secretion)” value (ISC-enriched organoids [3]; dose 0.40 uM) was −0.076, the “Z.LYZ.NS (standard z score)” value (ISC-enriched organoids [3]; dose 2.00 uM) was −1.153 and the “Dose.FC.LYZ.NS (log 2 fold change, basal lysozyme secretion)” value (ISC-enriched organoids [3]; dose 2.00 uM) was −0.132. The “Z.LYZ.NS (standard z score)” value (ISC-enriched organoids [3]; dose 10.00 uM) was −1.899 and the “Dose.FC.LYZ.NS (log 2 fold change, basal lysozyme secretion)” value (ISC-enriched organoids [3]; dose 10.00 uM) was −0.218.
